Measured values as given in the Biogen ADME set (Fang et al. 2023).
Converted amounts (≈) assume the structure as drawn.

Settings: for aqueous solubility: pH 6.8

SMILES	intrinsic clearance, human liver microsomes	intrinsic clearance, rat liver microsomes	MDR1-MDCK efflux ratio	aqueous solubility
COc1cccc(CN2CCc3nc(-c4cnccn4)nc(O)c3C2)c1	≤ 4.74 mL/min/kg	26.6 mL/min/kg	–	–
CC1(C)Cc2cc(NC(=O)c3cnn4cccnc34)c(N3CCN(CC(F)F)CC3)nc2O1	18.6 mL/min/kg	121 mL/min/kg	7.71	76.9 µg/mL (≈ 168 µM)
O=C(CCn1cncn1)N(CC#Cc1ccccc1)C1CCCC1	263 mL/min/kg	1350 mL/min/kg	1.98	22.5 µg/mL (≈ 69.7 µM)
Cc1cc(Nc2nnc(C)s2)cc(C2CN(C(=O)c3c(C(C)C)noc3C)CCO2)n1 (stereo not given)	22.5 mL/min/kg	151 mL/min/kg	54.3	–
CC(=O)NCc1ccc(-c2ccccc2C(=O)O)cc1	–	–	–	31.2 µg/mL (≈ 116 µM)
CC(=O)Nc1ccc(S(=O)(=O)NC2=NCN(Cc3ccccc3)CN2)cc1	≤ 4.74 mL/min/kg	≤ 10.7 mL/min/kg	–	61 µg/mL (≈ 157 µM)
CC(C)Cc1ccccc1CNCc1ccc2[nH]cnc2c1	55.8 mL/min/kg	765 mL/min/kg	7.25	–
CC(C)c1nnc(NCc2ccn(C)c2)o1	≤ 4.74 mL/min/kg	63.1 mL/min/kg	0.768	17.9 µg/mL (≈ 81.2 µM)
O=C(Nc1ccc(C2CCCCC2)cc1)c1ccc(S(=O)(=O)NCc2cccnc2)cc1	194 mL/min/kg	604 mL/min/kg	–	–
Cc1nc(NCc2ccc(F)c(Cl)c2)n(C)n1	7.77 mL/min/kg	35.6 mL/min/kg	0.789	43.7 µg/mL (≈ 172 µM)
CCOc1ccc(Oc2ccc(OCc3cc(F)ccc3F)cc2)c(N)c1	8.79 mL/min/kg	104 mL/min/kg	–	–
CCS(=O)(=O)Nc1ccc(Oc2ccc(F)cc2F)c(-c2cn(C)c(=O)c3[nH]ccc23)c1	≤ 4.74 mL/min/kg	14.9 mL/min/kg	51.2	16.9 µg/mL (≈ 36.7 µM)
O=C(O)c1csc(Cc2ccc(Cl)cc2)n1	≤ 4.74 mL/min/kg	≤ 10.7 mL/min/kg	0.4	–
Cc1nc(Nc2ccc(F)cc2)nc2c1ncn2-c1ccc(F)cc1	–	–	0.388	0.14 µg/mL (≈ 0.415 µM)

Next, values leading:

intrinsic clearance, human liver microsomes	intrinsic clearance, rat liver microsomes	MDR1-MDCK efflux ratio	aqueous solubility	SMILES
16.5 mL/min/kg	798 mL/min/kg	1.43	–	CCCS(=O)(=O)NC1CCN(Cc2ccc(C)c(OC)c2)CC1
≤ 4.74 mL/min/kg	76 mL/min/kg	1.46	3.69 µg/mL (≈ 8.47 µM)	COc1ccc(C(=O)Cn2c(=O)n(-c3ccccc3F)c3nc(C)nc(C(N)=O)c32)cc1
≤ 4.74 mL/min/kg	≤ 10.7 mL/min/kg	4.18	78 µg/mL (≈ 253 µM)	COc1cc(CNC(=O)NC2CCCCC2)cc(OC)c1O
≤ 4.74 mL/min/kg	17.6 mL/min/kg	0.428	45.6 µg/mL (≈ 145 µM)	O=C(c1cc2ccccc2[nH]1)N1C[C@@H](O)[C@H](N2CCOCC2)C1
≤ 4.74 mL/min/kg	112 mL/min/kg	0.82	53 µg/mL (≈ 173 µM)	CCOC(=O)N1CCN(C(=O)c2ccc3c(c2)OCO3)CC1
≤ 4.74 mL/min/kg	≤ 10.7 mL/min/kg	–	–	Cc1cc(C(=O)N2CCS(=O)(=O)CC2)c(C)o1
98.3 mL/min/kg	1400 mL/min/kg	4.11	28.9 µg/mL (≈ 81.2 µM)	Cc1ccc(-c2nc(CN3CCOCC3)n(Cc3ccc(F)cc3)n2)o1
63 mL/min/kg	2210 mL/min/kg	14.2	48.8 µg/mL (≈ 167 µM)	CCN(C(=O)c1cc(NC(C)=O)ccc1F)C1CCCC1
